US4690935A, “Inhibition of tumor growth and metastasis with calcium channel blocker compounds” (Wayne State University, priority 1983, dated 1987)

Key:
B16a Tumor Cells [1] = test: In vitro proliferation of B16a tumor cells; assay type: cell-based, mouse; conditions: for effect on tumor cell proliferation (in words): B16a cells, 10-40 micrograms/ml, five day assay
Protocol: Proliferation studies were designed to measure the effects of BAY e 9736 on the proliferation of B16 a tumor cells. B16a tumor cells were plated into T-25 flasks (4×10^4 cells/flask) and allowed to grow at 37° C. for 16 hours. The media was removed from the flasks and plating efficiency was determined using a Coulter counter. Replacement media was added to the flasks, which were allowed to incubate for 24 hours. After the 24 hour incubation, 10 microliters of control (media), DMSO, or BAY e 9736 in DMSO (40 mg/ml stock) was added to the flasks. Media replacement with and without BAY e 9736 were performed every 24 hours for 4 consecutive days. Control flasks (3) were terminated every day of the proliferation study with 4 terminated on the final day.
A 40 mg aliquot of BAY e 9736 was dissolved in 1 milliliter dimethyl sulfoxide (DMSO). Aliquots of this 40 mg/ml stock were diluted with DMSO to final concentrations of 20 and 10 mg/ml. At day two and each successive day, 10 microliter aliquots of 40, 20, and 10 mg/ml BAY e 9736 were added once a day to the new media of flasks containing proliferating B16a tumor cells as previously described.

B16a Tumor Cells [2] = test: "Experimental" metastasis (lung colonies) induced by tail vein injection of B16a tumor cells; assay type: in vivo, mouse; conditions: oral, mice; for % of Control (mean number of metastatic lesions on lung surface): 1 h before and 1 h after tumor cells, 21 days, x ± SEM, n = 12, control = 100%; for reduction of lung colonies / tail vein metastasis (in words): tail vein injection of B16a
Source text: B16 amelanotic melanoma (B16a) and Walker 256 L-Pam carcinosarcoma were obtained from the Division of Cancer Treatment, Animal and Human Tumor Bank, Mason Research Institute, Worcester, Mass. Tumors were passaged four times after receipt in syngeneic C57BL/6J male mice (B16a) or allogenic Sprague Dawley rats (Walker 256 L-Pam). Passaging involved subcutaneous implantations of tumor pices (diced to approximately 2×2 MM) into the right auxiliary region using a 18 gauge needle. Mice weighing approximately 20 grams (4 to 5 weeks old) were used to passage the B16a cell line and female rats were used to passage the Walker 256 L-Pam cell line. Animals were housed under identical conditions of temperature, feeding, photoperiod, etc. The transplanted tumors were allowed to grow for approximately 14 days following implantation.
The B16a tumor cells, obtained by the previously described procedure of tumor dispersion and tumor cell elutriation were used to test the antimetastatic effect of BAY e 9736.
A 40 mg portion of BAY e 9736 was dissolved in 1 ml of polyethylene glycol (PEG-400). This stock solution was diluted 1:5, 1:10, 1:50 and 1:1000 with PEG-400. C56BL/6J mice weighing an average of 20 grams were injected orally with 0.1 ml of the diluted BAY e 9736 one hour before and one hour after challenge with tumor cells. One hour after the first oral administration of BAY e 9736, the mice were injected via the tail vein with a 3×10^4 B16a tumor cell suspension in 0.05 ml prepared as described previously. The control and treated mice were kept under identical conditions of temperature, feeding) photoperiod, etc. The mice were sacrificed 21 days after tail vein injection of the tumor cells and the lungs were removed, fixed in Bouin's solution and visible bilateral metastasis counted.

B16a Tumor Cells [3] = test: 3H-thymidine incorporation into DNA of cultured B16a tumor cells; assay type: cell-based, mouse; conditions: for effect on 3H-thymidine incorporation (in words): B16a tumor cell DNA
Protocol: ^3 H-thymidine incorporation studies were designed to measure the effects of BAY e 9736, nimodipine on the incorporation of ^3 H-thymidine into the DNA of B16a tumor cells. One ml of cultured B16a tumor cells (in MEM+10% fetal calf serum) at 1×10^5 cells/ml are placed into plastic incubation tubes. The cells are incubated for 15 minutes at 37° C. in the presence of five microliters of dilutent (DMSO, dimethyl sulfoxide) alone or dilutent containing BAY e 9736. After 15 minutes, which is considered the preincubation period, the cells are incubated for one hour (at 37° C.) in the presence of one microcurie (per ml) ^3 H-thymidine. The assay is terminated by the addition of one milliliter of cold trichloroacetic acid, TCA, (6% w/v). The cells are centrifuged at 10,000×g ×4 minutes. The supernatant is discarded. The resulting pellet is resuspended in one milliliter of TCA, vortexed and then repelleted by centrifugation at 10,000 ×g ×4 minutes. The supernatant is discarded. The pellets are resuspended in 100 microliters of tissue solubilizing fluid (NCS from Amersham Corporation) and incubated for 2 hours at 50° C. Fifty microliter aliquots of the solubilized pellets are transferred into plastic scintillation vials containing 3 milliliters of scintillation fluid (Econofluor, New England Nuclear), allowed to cool and dark adjust, and counted.
A variation of the previously described experiment was used to determine the effects of BAY e 9736 on a different parameter of tumor cell proliferation, the replication of deoxyribonucleic acid (DNA) as measured by the incorporation of ^3 H-thymidine into tumor cell DNA. B16a tumor cells were grown in T-75 flasks and removed using trypsin, as previously described for Walker 256 L-Pam tumor cells. The B16a cells are quenched, washed, and resuspended in media (MEM+10% fetal calf serum, FCS) to a concentration of 1×10^5 cells/ml. One milliliter of tumor cells are placed into 5 ml plastic incubation tubes, and five microliters of media, dilutant, or dilutant containing 8, 4, or 2 milligram/ml BAY e 9736 are added to appropriate tubes. The assay was run, terminated, and the B16a tumor cell DNA extracted and counted as previously described.
Protocol same as previously described except nifedipine (40 mg) is first dissolved in absolute ethanol (0.5 ml) and then diluted with PEG-400 (1.5 ml) to a final concentration of 20 mg/ml. One microliter of the 20 mg/ml nifedipine solution was added to one ml of B16a tumor cells (for final concentration of 20 micrograms/ml). Nimodipine was dissolved as previously described.

COCCOC(=O)C1=C(C)NC(C)=C(C(=O)OC(C)C)C1c1cccc([N+](=O)[O-])c1 (stereo not drawn) [BAY e 9736, 1,4-dihydro-2,6-dimethyl-4-(3' nitrophenyl)-pyridine-3-(beta-methyoxyethylester)-5-(isopropyl ester)]
effect on tumor cell proliferation (in words) (B16a Tumor Cells [1]): inhibits tumor cell proliferation
effect on tumor cell proliferation (in words) (B16a Tumor Cells [1]; listed as nimodipine): decreases the rate of tumor cell growth over a five day assay period
activity at 10 µg/mL (B16a Tumor Cells [1]; Mus musculus, .01 mg/ml, drug readded once daily, x ± SEM, n = 4, read-out: % of Control Tumor Cell Number): 50 ± 5%
activity at 20 µg/mL (B16a Tumor Cells [1]; Mus musculus, .02 mg/ml, drug readded once daily, x ± SEM, n = 4, read-out: % of Control Tumor Cell Number): 25 ± 5%
activity at 40 µg/mL (B16a Tumor Cells [1]; Mus musculus, .04 mg/ml, drug readded once daily, x ± SEM, n = 4, read-out: % of Control Tumor Cell Number): 14 ± 3%
% of Control (mean number of metastatic lesions on lung surface) (B16a Tumor Cells [2]; 0.2 mg/kg): 55 ± 5%
% of Control (mean number of metastatic lesions on lung surface) (B16a Tumor Cells [2]; 4.0 mg/kg): 60 ± 7%
% of Control (mean number of metastatic lesions on lung surface) (B16a Tumor Cells [2]; 20.0 mg/kg): 73 ± 13.7%
% of Control (mean number of metastatic lesions on lung surface) (B16a Tumor Cells [2]; 40.0 mg/kg): 74 ± 7.5%
reduction of lung colonies / tail vein metastasis (in words) (B16a Tumor Cells [2]): effective in reducing the number of lung colonies at all levels examined
reduction of lung colonies / tail vein metastasis (in words) (B16a Tumor Cells [2]; listed as nimodipine): reduce metastasis induced by tail vein injection
effect on 3H-thymidine incorporation (in words) (B16a Tumor Cells [3]): inhibited the incorporation of ^3 H-thymidine into the tumor cell DNA
effect on 3H-thymidine incorporation (in words) (B16a Tumor Cells [3]; listed as nimodipine): decreases the rate of incorporation of ^3 H-thymidine into tumor cell DNA
activity at 10 µg/mL (B16a Tumor Cells [3]; Mus musculus, .01 mg/ml, 15 min preincubation, 1 hour incorporation, x ± SEM, n = 4, read-out: % of Control Tumor Cell Incorporation (3H-thymidine)): 77 ± 2.5%
activity at 20 µg/mL (B16a Tumor Cells [3]; Mus musculus, .02 mg/ml, 15 min preincubation, 1 hour incorporation, x ± SEM, n = 4, read-out: % of Control Tumor Cell Incorporation (3H-thymidine)): 56 ± 3.5%
activity at 40 µg/mL (B16a Tumor Cells [3]; Mus musculus, .04 mg/ml, 15 min preincubation, 1 hour incorporation, x ± SEM, n = 4, read-out: % of Control Tumor Cell Incorporation (3H-thymidine)): 38 ± 4%
